# Assay results as given in patent US11457629B2, “Heteroarylphenylaminoquinolines and analogues” (Bayer Aktiengesellschaft, priority 2017, dated 2022).
# Test: Log P by HPLC on reversed phase columns, method [a] (acidic range, 0.1% formic acid)
# Conditions: LogP, method [a] / Method A: LC-UV, acidic range
# Method: In the following, measurement of Log P values was performed according to EEC directive 79/831 Annex V.A8 by HPLC (High Performance Liquid Chromatography) on reversed phase columns with the following methods: • ^[a]
# If more than one Log P value is available within the same method, all the values are given and separated by “+”.
# Calibration was done with straight-chain alkan2-ones (with 3 to 16 carbon atoms) with known Log P values (measurement of Log P values using retention times with linear interpolation between successive alkanones).
row,SMILES,chromatographic logP
1,"COC(=O)c1ccn(-c2ccccc2Nc2cnc3ccccc3c2)n1 [Example I-062, methyl 1-[2-(3-quinolylamino)phenyl]pyrazole-3-carboxylate]",2.16
2,"Cn1nccc1-c1c(F)cccc1Br [IXa-01, 5-(2-bromo-6-fluorophenyl)-1-methyl-1H-pyrazole]",2.4
3,"CC(C)n1nccc1-c1c(F)cccc1Br [IXa-02, 5-(2-bromo-6-fluorophenyl)-1-isopropyl-1H-pyrazole]",3.09
4,"CC(C)(C)n1nccc1-c1c(F)cccc1Br [IXa-03, 5-(2-bromo-6-fluorophenyl)-1-tert-butyl-1H-pyrazole]",3.61
5,"CCn1nccc1-c1c(F)cccc1Br [IXa-04, 5-(2-bromo-6-fluorophenyl)-1-ethyl-1H-pyrazole]",2.71
6,"Fc1cccc(Br)c1-c1ccnn1CCc1ccccc1 [IXa-05, 5-(2-bromo-6-fluorophenyl)-1-(2-phenylethyl)-1H-pyrazole]",3.83
7,"OCc1ccnn1-c1c(F)cccc1Br [IXb-01, [1-(2-bromo-6-fluorophenyl)-1H-pyrazol-5-yl]methanol]",1.27
8,"CC(C)(C)[Si](C)(C)OCc1ccnn1-c1c(F)cccc1Br [IXb-02, 1-(2-bromo-6-fluorophenyl)-5-({[tert-butyl(dimethyl)silyl]oxy}methyl)-1H-pyrazole]",4.96
9,"COC(=O)c1ccnn1-c1c(F)cccc1Br [IXb-03, methyl 1-(2-bromo-6-fluorophenyl)-1H-pyrazole-5-carboxylate]",2.53
10,"CC(C)(C)[Si](C)(C)OCc1ccnn1-c1c(N)cccc1F [IXb-04, 2-[5-({[tert-butyl(dimethyl)silyl]oxy}methyl)-1H-pyrazol-1-yl]-3-fluoroaniline]",4.1
11,Fc1cccc2cc(Nc3ccccc3Br)cnc12 [N-(2-bromophenyl)-8-fluoro-quinolin-3-amine],3.27
12,"CC1(C)OB(c2ccccc2Nc2cnc3c(F)cccc3c2)OC1(C)C [VI-01, 8-fluoro-N-[2-(4,4,5,5-tetramethyl-1,3,2-dioxaborolan-2-yl)phenyl]quinolin-3-amine]",4.87
13,"CC1(C)OB(c2ccccc2Nc2cnc3ccccc3c2)OC1(C)C [VI-02, N-[2-(4,4,5,5-tetramethyl-1,3,2-dioxaborolan-2-yl)phenyl]quinolin-3-amine]",4.29
14,"CC1(C)OB(c2ccccc2Cc2cnc3ccccc3c2)OC1(C)C [VI-03, 3-[2-(4,4,5,5-tetramethyl-1,3,2-dioxaborolan-2-yl)benzyl]quinoline]",3.39
15,"CC(C)(C)OC(=O)N(c1cnc2ccccc2c1)c1ccccc1-n1nccc1C(=O)O [XX-01, 1-{2-[(tert-butoxycarbonyl)(quinolin-3-yl)amino]phenyl}-1H-pyrazole-5-carboxylic acid]",2.42
16,"CC(C)(C)OC(=O)N(c1cnc2ccccc2c1)c1cccc(F)c1-n1nccc1C(=O)O [XX-02, 1-{2-[(tert-butoxycarbonyl)(quinolin-3-yl)amino]-6-fluorophenyl}-1H-pyrazole-5-carboxylic acid]",2.62
17,"COC(=O)c1ccnn1-c1c(F)cccc1N(C(=O)OC(C)(C)C)c1cnc2ccccc2c1 [XX-03, methyl 1-{2-[(tert-butoxycarbonyl)(quinolin-3-yl)amino]-6-fluorophenyl}-1H-pyrazole-5-carboxylate]",3.36
18,"C=C(C)c1ccnn1-c1ccccc1N(C(=O)OC(C)(C)C)c1cnc2ccccc2c1 [XX-04, tert-butyl {2-[5-(prop-1-en-2-yl)-1H-pyrazol-1-yl]phenyl}quinolin-3-ylcarbamate]",3.67
19,"COC(=O)c1ccnn1-c1ccccc1N(C(=O)OC(C)(C)C)c1cnc2ccccc2c1 [XX-05, Methyl 1-(2-(tert-butoxycarbonyl(quinolin-3-yl)amino)phenyl)-1H-pyrazole-5-carboxylate]",3.19

# Same assay, conditions: logP, HPLC on reversed phase columns, method [a]: acidic range
row,SMILES,chromatographic logP
1,"COC(=O)c1ccn(-c2ccccc2Nc2cnc3ccccc3c2)n1 [Example I-062, methyl 1-[2-(3-quinolylamino)phenyl]pyrazole-3-carboxylate]",2.16
